Drawing on PubChem BioAssay (NCI), this text covers TGI for 20 molecules.

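Grown in 96-well plates, cells were treated for 48 hours with each compound at five concentrations. Insufficient inhibition: endpoint recorded as highest concentration tested. TGI denotes the concentration required for complete inhibition of growth.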

The subject of one test is SNB-19 CNS. As to the kind of experiment: inhibition of tumour cell growth, NCI panel, 48 h.
Take `CNC(=O)OCC1=C(COC(=O)NC)C(C)N(c2ccc(OC)cc2)C1` (stereo not given): the TGI is over 100 µM.

The molecule `O=C1c2ccccc2C2C1N2C(=O)C(F)(F)F` (stereo not given) came in with a TGI of over 100 µM.

With `CC(=O)NC1=C(NCCC(C)C)C(=O)c2ccccc2C1=O`, the TGI is over 50 µM.

Take `N#CC1=C(N)N(c2ccccc2)C(c2ccco2)C1(C#N)C#N` (stereo not given): the TGI was 71.4 µM.

Regarding `O=S1(=O)NC(=NCc2c[nH]c3ccccc23)N(c2ccccc2)c2ccncc21`, the TGI is over 100 µM.

Molecule `CC(=O)NNc1nc(C)c(C(=O)NNC(=O)C(=O)Nc2c(Cl)cc([N+](=O)[O-])cc2Cl)s1` gave a TGI of over 100 µM.

`Cc1ccsc1/C=N/Nc1ncccn1` had a TGI of over 100 µM.

The molecule `N=c1n(C(=O)N2CCCC2)c2cc(Cl)ccc2n1C1=NCCN1` showed a TGI of over 100 µM.

Turning to `Nc1cccc2cc(Cl)cnc12`, the TGI was over 100 µM.

Regarding `CCc1ccc(CCN2CCCCC2)nc1`, the TGI was over 100 µM.

The subject of another test is LOX IMVI melanoma. The experiment in a line: inhibition of tumour cell growth, NCI panel, 48 h.
As to `CC(C)c1ccc(/C=C2/C=C(c3ccc4ccccc4c3)OC2=O)cc1`, the TGI is over 100 µM.

As for `COc1cc(/C=C/C(=N\NS(=O)(=O)c2ccc(C)cc2)c2sc(NNC(C)=O)nc2C)ccc1O`, the TGI was over 100 µM.

In turn, `Oc1ccc(-c2nc(-c3cccnc3)c(-c3ccc(F)cc3)[nH]2)cc1` came in with a TGI of 28.5 µM.

Molecule `CCCCCCCCCCCOc1ccc(C(=O)C(=O)c2ccc(OCCCCCCCCCCC)c(OCCCCCCCCCCC)c2)cc1OCCCCCCCCCCC` gave a TGI of over 100 µM.

Take `COc1cc(/C=C2\S/C(=N/Nc3nc(-c4ccc(Br)cc4)cs3)NC2=O)cc(OC)c1OC`: the TGI amounted to 33.2 µM.

`CCOC(=O)Nn1c(C)nnc1-c1ccccc1` gave a TGI of over 100 µM.

As for `COc1ccc(/C=C2\CCC(C)C3=C2NC(=S)NC3c2ccc(OC)c(OC)c2)cc1OC` (stereo not given), the TGI was over 31.6 µM.

In turn, `O=[N+]([O-])/C(C(Cl)=C(Cl)Cl)=C(\SCc1ccccc1)N1CCCCC1` came in with a TGI of 35 µM.

As to `CC(C)/C(Cl)=N\OC(=O)Nc1ccc(S(N)(=O)=O)cc1`, the TGI stood at 7 µM.

Regarding `CC1C=C(CCCCCCCCCCCC[C@@H](O)[C@@H]2CC[C@@H]([C@@H]3CC[C@@H](C(O)CCCCCCCCCCCCC4=C[C@H](C)OC4=O)O3)O2)C(=O)O1` (stereo not given in full), the TGI is over 100 µM.

As to `CNC(=O)OCC1=C(COC(=O)NC)C(C)N(c2ccc(OC)cc2)C1` (stereo not given), the TGI is over 100 µM.

In turn, `O=C1c2ccccc2C2C1N2C(=O)C(F)(F)F` (stereo not given) showed a TGI of over 100 µM.

Molecule `CC(=O)NC1=C(NCCC(C)C)C(=O)c2ccccc2C1=O` showed a TGI of over 50 µM.

The molecule `N#CC1=C(N)N(c2ccccc2)C(c2ccco2)C1(C#N)C#N` (stereo not given) displayed a TGI of 31.1 µM.

For the molecule `O=S1(=O)NC(=NCc2c[nH]c3ccccc23)N(c2ccccc2)c2ccncc21`, the TGI is over 100 µM.

Turning to `CC(=O)NNc1nc(C)c(C(=O)NNC(=O)C(=O)Nc2c(Cl)cc([N+](=O)[O-])cc2Cl)s1`, the TGI was over 100 µM.

On to `Cc1ccsc1/C=N/Nc1ncccn1`, for which the TGI is over 100 µM.

Turning to `N=c1n(C(=O)N2CCCC2)c2cc(Cl)ccc2n1C1=NCCN1`, the TGI was over 100 µM.

Consider `Nc1cccc2cc(Cl)cnc12`, for which the TGI is over 100 µM.

Take `CCc1ccc(CCN2CCCCC2)nc1`: the TGI is over 100 µM.

The subject of the next test is HCT-116 colon. The experiment in a line: inhibition of tumour cell growth, NCI panel, 48 h.
`CC(C)c1ccc(/C=C2/C=C(c3ccc4ccccc4c3)OC2=O)cc1` displayed a TGI of over 100 µM.

`COc1cc(/C=C/C(=N\NS(=O)(=O)c2ccc(C)cc2)c2sc(NNC(C)=O)nc2C)ccc1O` came in with a TGI of over 100 µM.

`Oc1ccc(-c2nc(-c3cccnc3)c(-c3ccc(F)cc3)[nH]2)cc1` came in with a TGI of 32.9 µM.

Molecule `CCCCCCCCCCCOc1ccc(C(=O)C(=O)c2ccc(OCCCCCCCCCCC)c(OCCCCCCCCCCC)c2)cc1OCCCCCCCCCCC` gave a TGI of over 100 µM.

Turning to `COc1cc(/C=C2\S/C(=N/Nc3nc(-c4ccc(Br)cc4)cs3)NC2=O)cc(OC)c1OC`, the TGI amounted to 17.2 µM.

As to `CCOC(=O)Nn1c(C)nnc1-c1ccccc1`, the TGI is over 100 µM.

The molecule `COc1ccc(/C=C2\CCC(C)C3=C2NC(=S)NC3c2ccc(OC)c(OC)c2)cc1OC` (stereo not given) registered a TGI of over 31.6 µM.

The molecule `O=[N+]([O-])/C(C(Cl)=C(Cl)Cl)=C(\SCc1ccccc1)N1CCCCC1` came in with a TGI of 31.3 µM.

In the case of `CC(C)/C(Cl)=N\OC(=O)Nc1ccc(S(N)(=O)=O)cc1`, the TGI came out at 27.7 µM.

Turning to `CC1C=C(CCCCCCCCCCCC[C@@H](O)[C@@H]2CC[C@@H]([C@@H]3CC[C@@H](C(O)CCCCCCCCCCCCC4=C[C@H](C)OC4=O)O3)O2)C(=O)O1` (stereo not given in full), the TGI is over 100 µM.

`CNC(=O)OCC1=C(COC(=O)NC)C(C)N(c2ccc(OC)cc2)C1` (stereo not given): the TGI was over 100 µM.

Regarding `O=C1c2ccccc2C2C1N2C(=O)C(F)(F)F` (stereo not given), the TGI was over 100 µM.

Regarding `CC(=O)NC1=C(NCCC(C)C)C(=O)c2ccccc2C1=O`, the TGI was over 50 µM.

The molecule `N#CC1=C(N)N(c2ccccc2)C(c2ccco2)C1(C#N)C#N` (stereo not given) yielded a TGI of over 100 µM.

`O=S1(=O)NC(=NCc2c[nH]c3ccccc23)N(c2ccccc2)c2ccncc21` showed a TGI of over 100 µM.

`CC(=O)NNc1nc(C)c(C(=O)NNC(=O)C(=O)Nc2c(Cl)cc([N+](=O)[O-])cc2Cl)s1` had a TGI of over 100 µM.

The molecule `Cc1ccsc1/C=N/Nc1ncccn1` yielded a TGI of over 100 µM.

`N=c1n(C(=O)N2CCCC2)c2cc(Cl)ccc2n1C1=NCCN1` had a TGI of over 100 µM.

Take `Nc1cccc2cc(Cl)cnc12`: the TGI was over 100 µM.

In the case of `CCc1ccc(CCN2CCCCC2)nc1`, the TGI is over 100 µM.
